# Laboratory results: patent US8895587B2, “Insecticidal compounds based on arylthioacetamide derivatives” (Syngenta Participations AG, priority 2011, dated 2014)
# Legend:
# Assay type in all cases: in vivo
# [1] = test system: Plutella xylostella; test: Plutella xylostella (diamond back moth) larval test on artificial diet; settings: 144 h; for pest or weed control at 0.8 ppm: application rate 0.8 ppm; for pest or weed control at 3 ppm: application rate 3 ppm; for pest or weed control at 0.2 ppm: application rate 0.2 ppm
# [2] = test system: Heliothis virescens; test: Heliothis virescens (tobacco budworm) egg/larval test on artificial diet; settings: 96 h; for pest or weed control at 0.8 ppm: application rate 0.8 ppm; for pest or weed control at 3 ppm: application rate 3 ppm; for pest or weed control at 0.2 ppm: application rate 0.2 ppm
# [3] = test system: Diabrotica balteata; test: Diabrotica balteata (corn root worm) larval test on artificial diet; settings: 120 h, read-out: Control/% Diabrotica balteata Corn rootworm; for pest or weed control at 12 ppm: application rate 12 ppm; for pest or weed control at 50 ppm: application rate 50 ppm; for pest or weed control at 0.8 ppm: application rate 0.8 ppm; for pest or weed control at 3 ppm: application rate 3 ppm
# [4] = test system: Tetranychus urticae; test: Tetranychus urticae (two-spotted spider mite) leaf disc test; settings: foliar, 192 h, application rate 200 ppm, bean leaf discs, 8 days
# From the text: Bean leaf discs on agar in 24-well microtiter plates were sprayed with test solutions at an application rate of 200 ppm. After drying, the leaf discs are infested with mite populations of mixed ages. 8 days later, discs are checked for egg mortality, larval mortality, and adult mortality.
# [5] = test system: Plutella xylostella; test: Plutella xylostella (diamond back moth) larval test on artificial diet; settings: 144 h, application rate 200 ppm (concentration in well 18 ppm), L2 larvae on artificial diet, 6 days
# Method: (§1) 24-well microtiter plate (MTP) with artificial diet was treated with test solutions at an application rate of 200 ppm (concentration in well 18 ppm) by pipetting. After drying, the MTP's were infested with L2 larvae (7-12 per well). After an incubation period of 6 days, samples were checked for larval mortality and growth regulation.
# [6] = test system: Myzus persicae; test: Myzus persicae (green peach aphid), systemic test; settings: 144 h, application rate 12.5 ppm, roots of pea seedlings in test solution, 6 days
# From the text: Myzus persicae (Green peach aphid), systemic test: Roots of pea seedlings, infested with an aphid population of mixed ages, are placed directly in the test solutions at an application rate of 12.5 ppm. 6 days after introduction, samples are checked for mortality and special effects on the plant. The following compounds gave at least 80% control of Myzus persicae: […]
# [7] = test system: Heliothis virescens; test: Heliothis virescens (tobacco budworm) egg/larval test on artificial diet; settings: 96 h, application rate 200 ppm (concentration in well 18 ppm), eggs on artificial diet, 4 days
# Method: Eggs (0-24 h old) were placed in 24-well microtiter plate on artificial diet and treated with test solutions at an application rate of 200 ppm (concentration in well 18 ppm) by pipetting. After an incubation period of 4 days, samples were checked for egg mortality, larval mortality, and growth regulation.
# [8] = test system: Thrips tabaci; test: Thrips tabaci (onion thrips) leaf disc test; settings: foliar, 168 h, application rate 200 ppm, sunflower leaf discs, 7 days
# Method: Sunflower leaf discs were placed on agar in a 24-well microtiter plate and sprayed with test solutions at an application rate of 200 ppm. After drying, the leaf discs were infested with a thrips population of mixed ages. After an incubation period of 7 days, samples were checked for mortality.
# [9] = test system: Spodoptera littoralis; test: Spodoptera littoralis (Egyptian cotton leafworm) leaf disc test; settings: foliar, 72 h, application rate 200 ppm, cotton leaf discs, L1 larvae, mortality, feeding behavior, growth regulation 3 DAT
# From the text: Spodoptera littoralis (Egyptian Cotton Leafworm): Cotton leaf discs were placed on agar in a 24-well microtiter plate and sprayed with test solutions at an application rate of 200 ppm. After drying, the leaf discs were infested with 5 L1 larvae. The samples were checked for mortality, feeding behavior, and growth regulation 3 days after treatment (DAT).
# [10] = test system: Diabrotica balteata; test: Diabrotica balteata (corn root worm) larval test on artificial diet; settings: 120 h, application rate 200 ppm (concentration in well 18 ppm), L2 larvae on artificial diet, 5 days
# Method: as §1, with “Diabrotica balteata (Corn Root Worm): A 24-well” for “24-well”, “(6-10” for “(7-12”, “5” for “6”
SMILES,pest or weed control at 0.8 ppm [1] [%],pest or weed control at 3 ppm [1] [%],pest or weed control at 0.8 ppm [2] [%],pest or weed control at 3 ppm [2] [%],pest or weed control at 12 ppm [3] [%],pest or weed control at 50 ppm [3] [%],pest or weed control at 0.2 ppm [1] [%],pest or weed control at 200 ppm [4] [%],pest or weed control at 0.2 ppm [2] [%],pest or weed control at 200 ppm [5] [%],pest or weed control at 0.8 ppm [3] [%],pest or weed control at 3 ppm [3] [%],pest or weed control at 12.5 ppm [6] [%],pest or weed control at 200 ppm [7] [%],pest or weed control at 200 ppm [8] [%],pest or weed control at 200 ppm [9] [%],pest or weed control at 200 ppm [10] [%]
Cc1cc(C2=NOC(c3cc(Cl)cc(Cl)c3)(C(F)(F)F)C2)ccc1S(C)(=O)=O (stereo not drawn) [Compound 1-021],0,0,0,0,0,90,–,–,–,–,–,–,–,–,–,–,–
"Cc1cc(C2=NO[C@@](c3cc(Cl)cc(Cl)c3)(C(F)(F)F)C2)ccc1SCC(=O)NCC(F)(F)F [Compound C1, 2-{4-[(S)-5-(3,5-Dichloro-phenyl)-5-trifluoromethyl-4,5-dihydro-isoxazol-3-yl]-2-methyl-phenylsulfanyl}-N-(2,2,2-trifluoro-ethyl)-acetamide]",100,100,80,100,100,–,80,≥ 80,80,≥ 80,80,100,≥ 80,≥ 80,≥ 80,–,–
O=C(C[S+]([O-])c1ccc(C2=NOC(c3cc(Cl)cc(Cl)c3)(C(F)(F)F)C2)cc1)NCC(F)(F)F (stereo not drawn) [Compound 1-029],0,80,0,80,50,100,–,–,–,–,–,–,–,–,–,–,–
O=C(CSc1ccc(C2=NOC(c3cc(Cl)cc(Cl)c3)(C(F)(F)F)C2)cc1)NCC(F)(F)F (stereo not drawn) [Compound 1-028],0,50,0,90,100,–,0,–,0,–,0,20,–,–,–,–,–
"O=C(CSc1ccc(C2=NO[C@@](c3cc(Cl)c(Cl)c(Cl)c3)(C(F)(F)F)C2)cc1Cl)NC1CC1 [Compound D4, 2-[2-chloro-4-[(5S)-5-(3,4,5-trichlorophenyl)-5-(trifluoromethyl)-4H-isoxazol-3-yl]phenyl]sulfanyl-N-cyclopropyl-acetamide]",–,–,–,–,–,–,–,≥ 80,–,≥ 80,–,–,≥ 80,≥ 80,≥ 80,≥ 80,≥ 80
"O=C(CSc1ccc(C2=NO[C@@](c3cc(Cl)cc(Cl)c3)(C(F)(F)F)C2)cc1F)NCC(F)(F)F [Compound C63, 2-[4-[(5S)-5-(3,5-dichlorophenyl)-5-(trifluoromethyl)-4H-isoxazol-3-yl]-2-fluoro-phenyl]sulfanyl-N-(2,2,2-trifluoroethyl)acetamide]",–,–,–,–,–,–,–,≥ 80,–,≥ 80,–,–,≥ 80,≥ 80,≥ 80,≥ 80,≥ 80
"O=C(CSc1ccc(C2=NCC(c3cc(Cl)cc(Cl)c3)(C(F)(F)F)C2)cc1Cl)NCC(F)(F)F (stereo not drawn) [Compound B1, 2-{2-Chloro-4-[4-(3,5-dichloro-phenyl)-4-trifluoromethyl-4,5-dihydro-3H-pyrrol-2-yl]-phenylsulfanyl}-N-(2,2,2-trifluoro-ethyl)-acetamide]",–,–,–,–,–,–,–,≥ 80,–,≥ 80,–,–,≥ 80,≥ 80,≥ 80,≥ 80,≥ 80
O=C(CS(=O)(=O)c1ccc(C2=NOC(c3cc(Cl)cc(Cl)c3)(C(F)(F)F)C2)cc1)NCC(F)(F)F (stereo not drawn) [Compound 1-030],0,0,0,80,50,100,–,–,–,–,–,–,–,–,–,–,–
CSc1ccc(C2=NOC(c3cc(Cl)cc(Cl)c3)(C(F)(F)F)C2)cc1C (stereo not drawn) [Compound 1-020],0,0,0,0,20,–,–,–,–,–,–,–,–,–,–,–,–
"O=C(CS(=O)(=O)c1ccc(C2=NO[C@@](c3cc(Cl)c(Cl)c(Cl)c3)(C(F)(F)F)C2)cc1Cl)NCC(F)(F)F [Compound D3, 2-[2-chloro-4-[(5S)-5-(3,4,5-trichlorophenyl)-5-(trifluoromethyl)-4H-isoxazol-3-yl]phenyl]sulfonyl-N-(2,2,2-trifluoroethyl)acetamide]",–,–,–,–,–,–,–,≥ 80,–,≥ 80,–,–,≥ 80,≥ 80,≥ 80,≥ 80,≥ 80
"O=C(C[S+]([O-])c1ccc(C2=NOC(c3cc(Cl)cc(Cl)c3)(C(F)(F)F)C2)cc1Br)NCC(F)(F)F (stereo not drawn) [Compound A52, 2-{2-Bromo-4-[5-(3,5-dichloro-phenyl)-5-trifluoromethyl-4,5-dihydro-isoxazol-3-yl]-benzenesulfinyl}-N-(2,2,2-trifluoro-ethyl)-acetamide]",–,–,–,–,–,–,–,≥ 80,–,≥ 80,–,–,≥ 80,≥ 80,≥ 80,≥ 80,≥ 80
Cc1cc(C2=NOC(c3cc(Cl)cc(Cl)c3)(C(F)(F)F)C2)ccc1[S+](C)[O-] (stereo not drawn),0,0,0,0,0,–,–,–,–,–,–,0,–,–,–,–,–
"O=C(CSc1ccc(C2=NOC(c3cc(Cl)cc(Cl)c3)(C(F)(F)F)C2)cc1Cl)NCC(F)(F)F (stereo not drawn) [Compound A5, 2-{2-Chloro-4-[5-(3,5-Dichloro-phenyl)-5-trifluoromethyl-4,5-dihydro-isoxazol-3-yl]-phenylsulfanyl}-N-(2,2,2-trifluoro-ethyl)-acetamide]",–,–,–,–,–,–,–,≥ 80,–,≥ 80,–,–,≥ 80,≥ 80,≥ 80,≥ 80,≥ 80
"O=C(CSc1ccc(C2=NOC(c3cc(Cl)cc(Cl)c3)(C(F)(F)F)C2)c2ccccc12)NCC(F)(F)F (stereo not drawn) [Compound G1, 2-[[4-[5-(3,5-dichlorophenyl)-5-(trifluoromethyl)-4H-isoxazol-3-yl]-1-naphthyl]sulfanyl]-N-(2,2,2-trifluoroethyl)acetamide]",–,–,–,–,–,–,–,≥ 80,–,≥ 80,–,–,≥ 80,≥ 80,≥ 80,≥ 80,≥ 80
"N#CC1(NC(=O)C[S+]([O-])c2ccc(C3=NOC(c4cc(Cl)cc(Cl)c4)(C(F)(F)F)C3)cc2Cl)CC1 (stereo not drawn) [Compound A56, 2-[2-chloro-4-[5-(3,5-dichlorophenyl)-5-(trifluoromethyl)-4H-isoxazol-3-yl]phenyl]sulfinyl-N-(1-cyanocyclopropyl)acetamide]",–,–,–,–,–,–,–,≥ 80,–,≥ 80,–,–,≥ 80,≥ 80,≥ 80,≥ 80,≥ 80
